Assay results: ChEMBL document CHEMBL1201862, “PubChem BioAssay data set” (2004)
Several values for one entry are separate records, joined by “and”; a condition that tells them apart may be missing. Equal entries are not always repeated.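 Where inhibition never reached the appropriate level, the endpoint shown equals the highest concentration tested. Otherwise, values were interpolated linearly from a five-concentration, 48-hour dose response in 96-well plates. GI50: concentration for 50% inhibition of growth.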 Activity calls are given as the source filed them. No stated cut-off is given here; in the data, active = GI50 up to about 1.1 µM and inactive = higher.

Key:
Experiment in all cases: inhibition of tumour cell growth, NCI panel, 48 h
HOP-92 = system: HOP-92
SW-620 = system: SW-620
HCC 2998 = system: HCC 2998
HL-60 = system: HL-60
A549 = system: A549
SF-268 = system: SF-268
UACC-257 = system: UACC-257
786-0 = system: 786-0
RXF 393 = system: RXF 393
HCT-15 = system: HCT-15
MDA-MB-231 = system: MDA-MB-231
UO-31 = system: UO-31
NCI-H226 = system: NCI-H226
M14 = system: M14
MOLT-4 = system: MOLT-4
OVCAR-8 = system: OVCAR-8
SNB-75 = system: SNB-75
SK-MEL-28 = system: SK-MEL-28
OVCAR-3 = system: OVCAR-3

SMILES | GI50 (HOP-92) | GI50 (SW-620) | GI50 (HCC 2998) | GI50 (HL-60) | GI50 (A549) | GI50 (SF-268) | GI50 (UACC-257) | GI50 (786-0) | GI50 (RXF 393) | GI50 (HCT-15) | GI50 (MDA-MB-231) | GI50 (UO-31) | GI50 (NCI-H226) | GI50 (M14) | GI50 (MOLT-4) | GI50 (OVCAR-8) | GI50 (SNB-75) | GI50 (SK-MEL-28) | GI50 (OVCAR-3)
COc1ccc(/C=C2/N/C(=N\N=C/C(O)C(O)C(O)CO)NC2=O)cc1 (stereo not given) | 48.3 µM (inactive) and 42.6 µM (inactive) | > 100 µM (inactive) and 77.8 µM (inactive) | 58.5 µM (inactive) | > 100 µM (inactive) | > 100 µM (inactive) | 57.5 µM (inactive) | > 100 µM (inactive) | > 100 µM (inactive) and 62.4 µM (inactive) | > 100 µM (inactive) | > 100 µM | 91 µM (inactive) | > 100 µM (inactive) | 87.7 µM (inactive) | 51.8 µM (inactive) | 88.1 µM (inactive) | > 100 µM (inactive) |  |  | 
O=c1oc2ccc(Cl)cc2c2ccccc12 | 23.2 µM (inactive) | > 100 µM (inactive) | > 100 µM (inactive) | > 100 µM (inactive) | 63.4 µM (inactive) | 20.7 µM (inactive) | > 100 µM (inactive) | 40.1 µM (inactive) | 22.1 µM (inactive) | > 100 µM | 17.4 µM (inactive) |  | 27.5 µM (inactive) | > 100 µM (inactive) | > 100 µM (inactive) | 65 µM (inactive) | 39.2 µM (inactive) | > 100 µM (inactive) | > 100 µM (inactive)
COC(=O)C1(C(=O)OC)CC2=C(S(=O)(=O)c3ccccc3)C[C@@H](C#N)[C@H]2C1 | 28.9 µM (inactive) | > 100 µM (inactive) | 16 µM (inactive) | > 100 µM (inactive) | > 100 µM (inactive) | > 100 µM (inactive) | > 100 µM (inactive) | > 100 µM (inactive) |  | 37.9 µM | > 100 µM (inactive) | > 100 µM (inactive) | > 100 µM (inactive) | > 100 µM (inactive) | > 100 µM (inactive) | > 100 µM (inactive) | > 100 µM (inactive) | > 100 µM (inactive) | 25.2 µM (inactive)
O=C(/C=C/C(=O)N1CCCC1)N1CCCC1 | > 100 µM (inactive) | > 100 µM (inactive) | > 100 µM (inactive) | > 100 µM (inactive) | > 100 µM (inactive) | > 100 µM (inactive) | > 100 µM (inactive) | > 100 µM (inactive) | > 100 µM (inactive) | > 100 µM | > 100 µM (inactive) | > 100 µM (inactive) |  | > 100 µM (inactive) | > 100 µM (inactive) | > 100 µM (inactive) |  | > 100 µM (inactive) | > 100 µM (inactive)
OC(C/C=N/Nc1ccccc1)(C(F)(F)Cl)C(F)(F)Cl | 7.35 µM (inactive) | > 10 µM (inactive) | 4.12 µM (inactive) | > 10 µM (inactive) | > 10 µM (inactive) | > 10 µM (inactive) | > 10 µM (inactive) | > 10 µM (inactive) | 6.75 µM (inactive) | 5.2 µM | 4 µM (inactive) | 9.98 µM (inactive) | 7.38 µM (inactive) | > 10 µM (inactive) |  | > 10 µM (inactive) | 9.91 µM (inactive) | > 10 µM (inactive) | 4.84 µM (inactive)
FC(F)(F)c1ccc2nc(Sc3ccc4ccccc4c3)cnc2c1 | > 100 µM (inactive) | 77.4 µM (inactive) | 52 µM (inactive) | 31.6 µM (inactive) | > 100 µM (inactive) | > 100 µM (inactive) | 43.8 µM (inactive) | 40.5 µM (inactive) | 21.9 µM (inactive) | 44.7 µM | 62.7 µM (inactive) | > 100 µM (inactive) | 87.9 µM (inactive) | 87.9 µM (inactive) | 24.5 µM (inactive) | > 100 µM (inactive) | > 100 µM (inactive) | > 100 µM (inactive) | 
